IC50 data for 4 molecules are collected here from BindingDB's records for doi:10.1016/j.chembiol.2008.07.015 (Duke University Medical Center, 2008).

As usually defined, the IC50 is the midpoint of a concentration-inhibition curve. High values mean weaker potency in that assay, low ones greater potency in that assay.

What all share (assay): BP Incorporation Assay
Common to all, as to settings: 37 °C

Test [1] has as its target Protein-glutamine gamma-glutamyltransferase 2/Receptor protein-tyrosine kinase (Homo sapiens, UniProt P21980+Q504U8). The protocol: (§1) In order to eliminated fluorescence interference, chemicals were subjected to a secondary screening using colorimetric BP incorporation assay. TGase/TGMS activity was determined by quantifying the incorporation of BP into N,N'-dimethylcasein in a microtiter plate.

The target of test [2] is Protein kinase C alpha type/glutamine gamma-glutamyltransferase 2 (Homo sapiens, UniProt P17252+P21980). The protocol:
as §1

For test [3], the target named is T1, Protein-glutamine gamma-glutamyltransferase 2 (Homo sapiens, UniProt P21980).
T1 sequence (P21980 whole entry): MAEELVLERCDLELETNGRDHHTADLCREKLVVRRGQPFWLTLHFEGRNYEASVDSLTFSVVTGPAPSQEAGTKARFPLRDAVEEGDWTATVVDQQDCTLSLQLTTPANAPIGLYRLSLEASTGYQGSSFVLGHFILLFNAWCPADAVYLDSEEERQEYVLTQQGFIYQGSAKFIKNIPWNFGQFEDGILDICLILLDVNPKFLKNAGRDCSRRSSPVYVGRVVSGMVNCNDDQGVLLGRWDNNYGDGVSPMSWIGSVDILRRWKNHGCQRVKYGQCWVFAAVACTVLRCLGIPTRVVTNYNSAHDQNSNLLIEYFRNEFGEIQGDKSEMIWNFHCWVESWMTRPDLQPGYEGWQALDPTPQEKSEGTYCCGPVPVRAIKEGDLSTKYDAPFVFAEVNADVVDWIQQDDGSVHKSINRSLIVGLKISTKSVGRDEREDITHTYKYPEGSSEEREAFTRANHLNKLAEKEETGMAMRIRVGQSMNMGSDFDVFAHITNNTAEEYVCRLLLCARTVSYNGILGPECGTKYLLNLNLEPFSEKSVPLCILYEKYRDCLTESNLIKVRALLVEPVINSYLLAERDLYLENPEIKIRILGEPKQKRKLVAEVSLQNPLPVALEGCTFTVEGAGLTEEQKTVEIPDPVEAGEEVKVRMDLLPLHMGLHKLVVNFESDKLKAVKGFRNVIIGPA
The procedure: as §1

Sequence of Protein-glutamine gamma-glutamyltransferase 2/Receptor protein-tyrosine kinase (Q504U8 whole entry, one chain of several): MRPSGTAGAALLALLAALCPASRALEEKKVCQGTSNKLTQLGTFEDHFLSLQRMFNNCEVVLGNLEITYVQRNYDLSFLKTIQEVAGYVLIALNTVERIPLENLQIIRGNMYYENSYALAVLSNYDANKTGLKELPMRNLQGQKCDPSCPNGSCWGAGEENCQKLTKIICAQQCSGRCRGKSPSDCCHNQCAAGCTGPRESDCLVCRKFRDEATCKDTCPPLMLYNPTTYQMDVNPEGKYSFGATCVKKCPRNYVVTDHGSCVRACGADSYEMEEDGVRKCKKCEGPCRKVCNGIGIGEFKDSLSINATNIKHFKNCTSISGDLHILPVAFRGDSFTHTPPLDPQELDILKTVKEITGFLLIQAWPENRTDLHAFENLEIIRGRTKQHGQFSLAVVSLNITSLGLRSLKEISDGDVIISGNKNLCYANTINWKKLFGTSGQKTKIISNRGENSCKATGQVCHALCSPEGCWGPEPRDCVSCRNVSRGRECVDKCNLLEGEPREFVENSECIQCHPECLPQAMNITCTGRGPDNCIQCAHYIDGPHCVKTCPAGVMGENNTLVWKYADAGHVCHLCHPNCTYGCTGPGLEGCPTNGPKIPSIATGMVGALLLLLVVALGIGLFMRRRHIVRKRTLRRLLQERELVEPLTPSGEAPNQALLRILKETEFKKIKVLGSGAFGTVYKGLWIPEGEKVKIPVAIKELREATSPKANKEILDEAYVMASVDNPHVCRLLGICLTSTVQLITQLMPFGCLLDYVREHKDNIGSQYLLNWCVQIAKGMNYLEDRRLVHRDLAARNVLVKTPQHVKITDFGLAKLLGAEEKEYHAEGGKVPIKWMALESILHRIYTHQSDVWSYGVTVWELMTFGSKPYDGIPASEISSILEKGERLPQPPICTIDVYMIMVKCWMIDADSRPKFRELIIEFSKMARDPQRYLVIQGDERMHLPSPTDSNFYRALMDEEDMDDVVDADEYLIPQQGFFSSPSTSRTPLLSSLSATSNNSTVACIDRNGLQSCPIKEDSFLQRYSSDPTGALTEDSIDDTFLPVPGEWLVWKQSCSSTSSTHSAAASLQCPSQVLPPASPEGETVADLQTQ

Molecule `N#C/C(=C\c1ccc(O)c(O)c1)C(N)=S` [alpha-Cyano-(3,4-dihydroxy)thiocinnamide] displayed an IC50 in test [1] of 3 µM.

As for `O=C1Nc2ccc(I)cc2/C1=C/c1cc(Br)c(O)c(Br)c1` [G6416 (GW5074)], inhibition in test [2] was half-maximal at 15 µM (IC50).

In test [3], `CC1=CC(=O)c2ccccc2C1=O` [Vitamin K3] yielded an IC50 of 2.2 µM.

Take `CC(=O)c1c(O)c(C)c(O)c(Cc2c(O)c3c(c(C(=O)C=Cc4ccccc4)c2O)OC(C)(C)C=C3)c1O` [(E)-1-(6-(3-acetyl-2,4,6-trihydroxy-5-methylbenzyl)-5,7-dihydroxy-2,2-dimethyl-2H-chromen-8-yl)-3-phenylprop-2-en-1-one]: the IC50 in test [2] was 20 µM.
